Source: US20250360120A1, “METHODS OF TREATMENT OF DRAVET SYNDROME” (Noema Pharma AG, priority 2023, published 2025)

Tested on: Scn1a+/− mice
Experiment: Seizure frequency, seizure freedom and time to first seizure (frontal cortex EEG) in Scn1a+/− mice
Assay type: in vivo
Conditions: for median time to first seizure: Kaplan-Meier, Untreated group 7 days; for Odds Ratio of seizure freedom (vs Untreated) / Probability of seizure freedom: GLM binomial
Experimental: Heterozygous deletion of Sca1a in mice (Scn1a+/−) recapitulates several core phenotypes of clinical Dravet syndrome, including temperature-dependent and spontaneous seizures, SUDEP, and behavioral abnormalities. […] As such, Scn1a+/−mice are a favourable model to enable translation of novel ASMs with varied mechanism of action to the clinic.
The experiment was conducted to evaluate the effect of Compound I, CTEP and RO6807794 on seizure frequency, seizure freedom and survival in Scn1a+/− mice.
Frontal cortex recordings were selected as representative of the seizure phenomenology on mice experiencing generalized seizures. EEG headmounts were implanted between P20-22 and recordings were initiated for continuous monitoring for a period of approximately 14-days for the NAM group and PAM group. Individual frontal cortex seizure measurements over time were visually explored and summaries across the time course were calculated. • 1. Seizure frequency
Seizure frequency was measured by count of the number of seizures observed each day. The frequency was analyzed using a Chi-square test (all treatments) and Fisher's Exact test (pairwise treatment comparisons). • 2. Seizure freedom
Seizure freedom was measured with a binary (0 or 1) endpoint, where it was recorded as a […] was recorded across the whole study. Seizure freedom was summarized across all animals into a contingency table and analyzed using a generalized linear model (GLM) with a binomial distribution for the errors and a logit link function. The results were presented as probabilities and odds ratios between groups and 95% confidence intervals. The odd ratio described how much more likely it is for an animal to have no seizures (Seizure freedom=1) in a treated group compared to the untreated group. Analyses were performed using GraphPad Prism 9 (contingency table) and SAS 9.4 (binomial model). • 3. Time to first seizure:
Time to first seizure refers the time recorded as the day on which the first seizure occurred (an observed, uncensored observation), or the final day of recording for that animal if on seizure was observed (a censored observation). Time to first seizure was visualized using a Kaplan-Meier plot and analyzed using a Log-rank (Mantel-Cox) test. Analyses were performed using GraphPad Prism 9. • 4. Total seizure burden
Total seizure burden is sum of the seizure frequency across all study days. • 5. Seizure per day
Seizure per day is measured by the total seizure count divided by the number of study days, wherein a seizure count measurement was adjusted by the number of days the animal was in the study.
Time to first seizure and Seizure per day were explored visually and analyzed using analysis of variance (ANOVA). Results were presented as geometric means, ratios of geometric means, confidence intervals and p-values. An additional non-parametric analysis, Kruskal-Wallis, was explored along with Wilcoxon pairwise comparisons to the Untreated group. The data was also analyzed using a generalized linear model (GLM) with a Poisson distribution for the errors and a log link function. The linear predictor described a model suitable for exploring a fixed effect of treatment group.

[1] = ANOVA on log10 adjusted scale, 0.3 mg/kg IP once daily for 5-days from P21
[2] = Generalized Linear Model on discrete (count) data, 0.3 mg/kg IP once daily for 5-days from P21
[3] = 0.3 mg/kg PO once daily for 28-days from P10
[4] = 1 mg/kg PO once daily for 28-days from P10
[5] = ANOVA on log10 adjusted scale, 0.3 mg/kg PO once daily for 28-days from P10
[6] = ANOVA on log10 adjusted scale, 1 mg/kg PO once daily for 28-days from P10
[7] = Generalized Linear Model on discrete (count) data, 0.3 mg/kg PO once daily for 28-days from P10
[8] = Generalized Linear Model on discrete (count) data, 1 mg/kg PO once daily for 28-days from P10
[9] = Kruskal-Wallis with Wilcoxon pairwise tests, 1 mg/kg PO once daily for 28-days from P10
[10] = exploratory ANOVA on log10 scale, 0.3 mg/kg PO once daily for 28-days from P10
[11] = exploratory ANOVA on log10 scale, 1 mg/kg PO once daily for 28-days from P10
[12] = 0.3 mg/kg PO every other day for 28-days
[13] = ANOVA on log10 adjusted scale, 0.3 mg/kg PO every other day for 28-days
[14] = Generalized Linear Model on discrete (count) data, 0.3 mg/kg PO every other day for 28-days
[15] = Kruskal-Wallis with Wilcoxon pairwise tests, 0.3 mg/kg PO every other day for 28-days
[16] = exploratory ANOVA on log10 scale, 0.3 mg/kg PO every other day for 28-days

Compound: CN(C(=O)c1ncc(C#Cc2cccc(F)c2)cn1)C(C)(C)C [RO6807794, reference compound]
- Seizure per day, % Change compared to untreated group [1]: 751.1%
- Seizure per day, Geometric Mean [1]: 1.046
- Seizure per day, Ratio of Means compared to untreated group [1]: 8.51
- seizure per day rates compared to the Untreated group (in words) (GLM on discrete (count) data, 0.3 mg/kg IP once daily for 5-days from P21): statistically significantly increased seizure per day rates
- Seizure per day, % Change vs Untreated [2]: 407.47%
- Seizure per day, Geometric Mean [2]: 2.490
- Seizure per day, Ratio of Means vs Untreated [2]: 5.07
- median time to first seizure (0.3 mg/kg IP once daily for 5-days from P21): 3 days
- seizure per day rates compared to the Untreated group (in words) (Kruskal-Wallis with Wilcoxon pairwise tests, 0.3 mg/kg IP once daily for 5-days from P21): increased seizure per day rates

Compound: Cc1nc(C#Cc2ccnc(Cl)c2)c(C)n1-c1ccc(F)cc1 [Compound I, 2-chloro-4-[1-(4-fluorophenyl)-2,5-dimethyl-1H-imidazol-4-ylethynyl]pyridine]
- Frequency of animals with At least 1 Seizure [3]: 10
- Frequency of animals with No Seizures (seizure freedom) [3]: 1
- Percent of animals with At least 1 Seizure [3]: 90.9%
- Percent of animals with No Seizures (seizure freedom) [3]: 9.1%
- Frequency of animals with At least 1 Seizure [4]: 3
- Frequency of animals with No Seizures (seizure freedom) [4]: 10
- Percent of animals with At least 1 Seizure [4]: 23.1%
- Percent of animals with No Seizures (seizure freedom) [4]: 76.9%
- animals with Seizure Freedom over time (Kaplan-Meier, in words) [4]: more animals with Seizure Freedom for a longer duration
- chance of seizure freedom (1 mg/kg PO once daily for 28-days from P10, 25% in the Untreated group): 77%
- Seizure per day, % Change compared to untreated group [5]: 183.96%
- Seizure per day, Geometric Mean [5]: 0.349
- Seizure per day, Ratio of Means compared to untreated group [5]: 2.84
- Seizure per day, % Change compared to untreated group [6]: −84.81%
- Seizure per day, Geometric Mean [6]: 0.019
- Seizure per day, Ratio of Means compared to untreated group [6]: 0.15
- reduction of average seizure per day compared to the Untreated group [6]: 79%
- Odds Ratio of seizure freedom (vs Untreated) [3]: 0.3
- Probability of seizure freedom [3]: 0.09
- Odds Ratio of seizure freedom (vs Untreated) [4]: 10
- Probability of seizure freedom [4]: 0.77
- reduction of total seizure burden compared to the Untreated group (GLM on discrete (count) data, 1 mg/kg PO once daily for 28-days from P10): 44%
- Seizure per day, % Change vs Untreated [7]: 85.38%
- Seizure per day, Geometric Mean [7]: 0.910
- Seizure per day, Ratio of Means vs Untreated [7]: 1.85
- Total Seizure Burden, % Change vs Untreated [7]: 87.21%
- Total Seizure Burden, Geometric Mean [7]: 12.64
- Total Seizure Burden, Ratio of Means vs Untreated [7]: 1.87
- Seizure per day, % Change vs Untreated [8]: −46.32%
- Seizure per day, Geometric Mean [8]: 0.263
- Seizure per day, Ratio of Means vs Untreated [8]: 0.54
- Total Seizure Burden, % Change vs Untreated [8]: −44.16%
- Total Seizure Burden, Geometric Mean [8]: 3.77
- Total Seizure Burden, Ratio of Means vs Untreated [8]: 0.56
- median time to first seizure [3]: 2 days
- seizure per day rates compared to the Untreated group (in words) [9]: decreased seizure per day rates
- total seizure burden compared to the Untreated group (in words) [9]: lower total seizure burden
- Total Seizure Burden, % Change compared to Untreated group [10]: 136.21%
- Total Seizure Burden, Geometric Mean [10]: 4.16
- Total Seizure Burden, Ratio of Means compared to Untreated group [10]: 2.36
- Total Seizure Burden, % Change compared to Untreated group [11]: −84.25%
- Total Seizure Burden, Geometric Mean [11]: 0.28
- Total Seizure Burden, Ratio of Means compared to Untreated group [11]: 0.16
- reduction of total seizure burden compared to the Untreated group [11]: 84%

Compound: Cc1nc(C#Cc2ccnc(Cl)c2)c(C)n1-c1ccc(OC(F)(F)F)cc1 [CTEP, reference compound]
- Frequency of animals with At least 1 Seizure [12]: 4
- Frequency of animals with No Seizures (seizure freedom) [12]: 11
- Percent of animals with At least 1 Seizure [12]: 26.7%
- Percent of animals with No Seizures (seizure freedom) [12]: 73.3%
- animals with Seizure Freedom over time (Kaplan-Meier, in words) [12]: more animals with Seizure Freedom for a longer duration
- Seizure per day, % Change compared to untreated group [13]: −79.05%
- Seizure per day, Geometric Mean [13]: 0.026
- Seizure per day, Ratio of Means compared to untreated group [13]: 0.21
- reduction of average seizure per day compared to the Untreated group [13]: 85%
- Odds Ratio of seizure freedom (vs Untreated) [12]: 8.25
- Probability of seizure freedom [12]: 0.73
- reduction of total seizure burden compared to the Untreated group (GLM on discrete (count) data, 0.3 mg/kg PO every other day for 28-days): 62%
- Seizure per day, % Change vs Untreated [14]: −23.56%
- Seizure per day, Geometric Mean [14]: 0.375
- Seizure per day, Ratio of Means vs Untreated [14]: 0.76
- Total Seizure Burden, % Change vs Untreated [14]: −62.47%
- Total Seizure Burden, Geometric Mean [14]: 2.53
- Total Seizure Burden, Ratio of Means vs Untreated [14]: 0.38
- seizure per day rates compared to the Untreated group (in words) [15]: decreased seizure per day rates
- total seizure burden compared to the Untreated group (in words) [15]: lower total seizure burden
- Total Seizure Burden, % Change compared to Untreated group [16]: −82.08%
- Total Seizure Burden, Geometric Mean [16]: 0.32
- Total Seizure Burden, Ratio of Means compared to Untreated group [16]: 0.18
- reduction of total seizure burden compared to the Untreated group [16]: 82%
